One assay has as its target T1, JAK2 (Homo sapiens, UniProt O60674).
T1 construct: endogenous in cells; host or cells: mixed Molt4/Ramos lysate (1:2)
Briefly: Kinobeads assay, JAK2. The class given is binding. To be noted: mixed Molt4/Ramos lysate, read-out: Inhibition values (IC50) JAK2. As for the experimental part: (§1) The compounds of the present invention as described in the previous examples were tested in a Kinobeads™ assay as described for ZAP-70 (WO-A 2007/137867). Briefly, test compounds (at various concentrations) and the affinity matrix with the immobilized aminopyrido-pyrimidine ligand 24 were added to cell lysate aliquots and allowed to bind to the proteins in the lysate sample. After the incubation time the beads with captured proteins were separated from the lysate. Bound proteins were then eluted and the presence of JAK2 and JAK3 was detected and quantified using specific antibodies in a dot blot procedure and the Odyssey infrared detection system. Dose response curves for individual kinases were generated and IC50 values calculated. Kinobeads™ assays for ZAP-70 (WO-A 2007/137867) and for kinase selectivity profiling (WO-A 2006/134056) have been previously described.
(§2) The affinity matrix was washed two times with 15 mL of 1×DP buffer containing 0.2% NP40 (IGEPAL® CA-630, Sigma, #I3021) and then resuspended in 1×DP buffer containing 0.2% NP40 (3% beads slurry).
(§3) 5×DP buffer 250 mM Tris-HCl pH 7.4, 25% Glycerol, 7.5 mM MgCl2, 750 mM NaCl, 5 mM Na3VO4; filter the 5×DP buffer through a 0.22 μm filter and store in aliquots at −80° C. The 5×DP buffer is diluted with H2O to 1×DP buffer containing 1 mM DTT and 25 mM NaF.
(§4) Stock solutions of test compounds were prepared in DMSO. In a 96 well plate 30 μL solution of diluted test compounds at 5 mM in DMSO were prepared. Starting with this solution a 1:3 dilution series (9 steps) was prepared. For control experiments (no test compound) a buffer containing 2% DMSO was used.
Molt4 cells (ATCC catalogue number CRL-1582) and Ramos cells (ATCC catalogue number CRL-1596) were grown in 1 L Spinner flasks (Integra Biosciences, #182101) in suspension in RPMI 1640 medium (Invitrogen, #21875-034) supplemented with 10% Fetal Bovine Serum (Invitrogen) at a density between 0.15×106 and 1.2×10^6 cells/mL. Cells were harvested by centrifugation, washed once with 1×PBS buffer (Invitrogen, #14190-094) and cell pellets were frozen in liquid nitrogen and subsequently stored at −80° C. Cells were homogenized in a Potter S homogenizer in lysis buffer: 50 mM Tris-HCl, 0.8% NP40, 5% glycerol, 150 mM NaCl, 1.5 mM MgCl2, 25 mM NaF, 1 mM sodium vanadate, 1 mM DTT, pH 7.5. One complete EDTA-free tablet (protease inhibitor cocktail, Roche Diagnostics, 1873580) per 25 mL buffer was added. The material was dounced 10 times using a mechanized POTTER S, transferred to 50 mL falcon tubes, incubated for 30 minutes on ice and spun down for 10 minutes at 20,000 g at 4° C. (10,000 rpm in Sorvall SLA600, precooled). The supernatant was transferred to an ultracentrifuge (UZ)-polycarbonate tube (Beckmann, 355654) and spun for 1 hour at 100,000 g at 4° C. (33.500 rpm in Ti50.2, precooled). The supernatant was transferred again to a fresh 50 mL falcon tube, the protein concentration was determined by a Bradford assay (BioRad) and samples containing 50 mg of protein per aliquot were prepared. The samples were immediately used for experiments or frozen in liquid nitrogen and stored frozen at −80° C.
(§5) Cell lysate (approximately 50 mg protein per plate) was thawed in a water bath at room temperature and then stored on ice. To the thawed cell lysate 1×DP 0.8% NP40 buffer containing protease inhibitors (1 tablet for 25 mL buffer; EDTA-free protease inhibitor cocktail; Roche Diagnostics 1873580) was added in order to reach a final protein concentration of 10 mg/mL total protein. The diluted cell lysate was stored on ice. Mixed Molt4/Ramos lysate was prepared by combining one volume of Molt4 lysate and two volumes of Ramos lysate (ratio 1:2).
To a 96 well filter plate (Multiscreen HTS, BV Filter Plates, Millipore #MSBVN1250) were added per well: 100 μL affinity matrix (3% beads slurry), 3 μL of compound solution, and 50 μL of diluted lysate. […]

The target in the next assay is T2, Aurora A (Homo sapiens, UniProt O14965).
T2 construct: cell lysates from Jurkat cells (ATCC TIB-152) used; endogenous in cells; host or cells: Jurkat cells (ATCC TIB-152), treated with pervanadate
T2 sequence (O14965 1-403): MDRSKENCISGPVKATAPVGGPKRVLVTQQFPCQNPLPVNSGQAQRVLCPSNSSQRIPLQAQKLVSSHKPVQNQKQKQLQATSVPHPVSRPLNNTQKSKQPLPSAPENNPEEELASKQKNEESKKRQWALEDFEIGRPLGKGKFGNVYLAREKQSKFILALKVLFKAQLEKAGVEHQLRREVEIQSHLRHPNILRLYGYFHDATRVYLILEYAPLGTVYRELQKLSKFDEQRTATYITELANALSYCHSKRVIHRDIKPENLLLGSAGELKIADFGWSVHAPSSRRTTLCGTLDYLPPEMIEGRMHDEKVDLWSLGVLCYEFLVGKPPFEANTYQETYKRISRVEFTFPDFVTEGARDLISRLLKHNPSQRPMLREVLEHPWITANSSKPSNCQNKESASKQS
Briefly: Kinobeads assay, Aurora A. To be noted: for IC50: lysate of pervanadate-treated Jurkat cells, read-out: Inhibition values (IC50) Aur A. The class given is binding. As for the experimental part:
as §1, §2, §3, §4, §5
To a 96 well filter plate (Multiscreen HTS, BV Filter Plates, Millipore #MSBVN1250) were added per well: 100 μL affinity matrix (3% beads slurry), 3 μL of compound solution, and 50 μL of diluted lysate. Plates were sealed and incubated for 3 hours in a cold room on a plate shaker (Heidolph tiramax 1000) at 750 rpm. Afterwards the plate was washed 3 times with 230 μL washing buffer (1×DP 0.4% NP40). The filter plate was placed on top of a collection 1 plate (Greiner bio-one, PP-microplate 96 well V-shape, 65120) and the beads were then eluted with 20 μL of sample buffer (100 mM Tris, pH 7.4, 4% SDS, 0.00025% bromophenol blue, 20% glycerol, 50 mM DTT). The eluate was frozen quickly at −80° C. and stored at −20° C.
The kinases in the eluates were detected and quantified by spotting on nitrocellulose membranes and using a first antibody directed against the kinase of interest and a fluorescently labelled secondary antibody (anti-rabbit IRDye™ antibody 800 (Licor, #926-32211). The Odyssey Infrared Imaging system from LI-COR Biosciences (Lincoln, Nebr., USA) was operated according to instructions provided by the manufacturer (Schutz-Geschwendener et al, 2004. Quantitative, two-color Western blot detection with infrared fluorescence. Published May 2004 by LI-COR Biosciences, www.licor.com).
After spotting of the eluates the nitrocellulose membrane (BioTrace NT; PALL, #BTNT30R) was first blocked by incubation with Odyssey blocking buffer (LICOR, 927-40000) for 1 hour at room temperature. Blocked membranes were then incubated for 16 hours at the temperature shown in Table 5 with the first antibody diluted in Odyssey blocking buffer (LICOR #927-40000). Afterwards the membrane was washed twice for 10 minutes with PBS buffer containing 0.2% Tween 20 at room temperature. […]

Each structure is given as a SMILES string. Some results are limits rather than exact numbers.

T1 sequence (O60674 whole entry): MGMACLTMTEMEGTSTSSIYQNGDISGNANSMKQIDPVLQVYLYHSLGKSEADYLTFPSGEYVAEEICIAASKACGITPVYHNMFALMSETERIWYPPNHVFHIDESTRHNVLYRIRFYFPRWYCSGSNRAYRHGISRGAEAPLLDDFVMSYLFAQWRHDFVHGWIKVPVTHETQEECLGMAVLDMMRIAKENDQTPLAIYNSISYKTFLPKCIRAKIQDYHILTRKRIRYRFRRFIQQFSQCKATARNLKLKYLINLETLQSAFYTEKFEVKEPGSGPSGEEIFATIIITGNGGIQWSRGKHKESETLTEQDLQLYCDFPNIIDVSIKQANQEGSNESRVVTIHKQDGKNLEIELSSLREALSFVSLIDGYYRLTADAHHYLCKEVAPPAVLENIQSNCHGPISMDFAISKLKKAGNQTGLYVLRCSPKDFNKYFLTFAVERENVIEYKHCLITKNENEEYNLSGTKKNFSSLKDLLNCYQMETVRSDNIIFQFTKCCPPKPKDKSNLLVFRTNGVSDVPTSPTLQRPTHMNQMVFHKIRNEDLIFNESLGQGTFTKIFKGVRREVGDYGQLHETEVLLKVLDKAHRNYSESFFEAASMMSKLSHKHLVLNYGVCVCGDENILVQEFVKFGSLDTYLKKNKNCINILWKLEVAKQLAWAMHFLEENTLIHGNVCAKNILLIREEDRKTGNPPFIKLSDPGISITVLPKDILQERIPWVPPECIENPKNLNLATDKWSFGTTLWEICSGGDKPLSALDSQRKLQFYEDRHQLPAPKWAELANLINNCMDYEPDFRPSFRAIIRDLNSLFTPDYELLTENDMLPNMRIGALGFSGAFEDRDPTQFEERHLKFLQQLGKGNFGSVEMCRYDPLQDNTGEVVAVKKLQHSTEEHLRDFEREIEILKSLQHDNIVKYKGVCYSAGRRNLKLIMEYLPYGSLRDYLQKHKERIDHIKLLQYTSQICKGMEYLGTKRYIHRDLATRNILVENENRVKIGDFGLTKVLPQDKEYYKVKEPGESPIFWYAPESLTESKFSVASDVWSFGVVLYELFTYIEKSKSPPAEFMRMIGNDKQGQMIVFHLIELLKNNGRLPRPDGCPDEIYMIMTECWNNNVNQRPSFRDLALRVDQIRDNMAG

Regarding `Cn1cc(Nc2ncc3cnn(Cc4cc(N5CCOCC5)ccc4F)c3n2)cn1` [Example 15, 1-(2-Fluoro-5-morpholinobenzyl)-N-(1-methyl-1H-pyrazol-4-yl)-1H-pyrazolo[3,4-d]pyrimidin-6-amine], the IC50 (as a rule, the point on the concentration scale where inhibition reaches its midpoint) on JAK2 was not below 10000 nM. On Aurora A, the “JAK3/AurA Fold Selectivity” value is recorded as 10-50 Fold and the IC50 is 1000 to 10000 nM.

Take `CN(C)C(=O)CCn1cc(Nc2ncc3cnn(Cc4cccc(N5CCOCC5)c4)c3n2)cn1` [Example 16, N,N-Dimethyl-3-(4-((1-(3-morpholinobenzyl)-1H-pyrazolo[3,4-d]pyrimidin-6-yl)amino)-1H-pyrazol-1-yl)propanamide]: at JAK2, the IC50 is 1000 to 10000 nM. At Aurora A, the “JAK3/AurA Fold Selectivity” value is recorded as 10-50 Fold and the IC50 lay in the range of 100 to 1000 nM.

With `Cn1cc(Nc2ncc3cnn(Cc4c(F)c(F)cc(N5CCOCC5)c4F)c3n2)cn1` [Example 17, N-(1-Methyl-1H-pyrazol-4-yl)-1-(2,3,6-trifluoro-5-morpholinobenzyl)-1H-pyrazolo[3,4-d]pyrimidin-6-amine], at JAK2, the half-inhibitory concentration (IC50) fell in the range of 1000 to 10000 nM. At Aurora A, the “JAK3/AurA Fold Selectivity” value was more than 50 Fold and the IC50 is 1000 to 10000 nM.

For `OCCCn1cc(Nc2ncc3cnn(Cc4cccc(N5CCOCC5)c4)c3n2)cn1` [Example 18, 3-(4-((1-(3-Morpholinobenzyl)-1H-pyrazolo[3,4-d]pyrimidin-6-yl)amino)-1H-pyrazol-1-yl)propan-1-ol], on JAK2, the IC50 is not below 10000 nM. At Aurora A, the “JAK3/AurA Fold Selectivity” value is 10-50 Fold and the IC50 was in the range of 100 to 1000 nM.

Consider `Cn1cc(Nc2ncc3cnn(Cc4cccc(N5CCC(F)(F)CC5)c4)c3n2)cn1` [Example 19, 1-(3-(4,4-Difluoropiperidin-1-yl)benzyl)-N-(1-methyl-1H-pyrazol-4-yl)-1H-pyrazolo[3,4-d]pyrimidin-6-amine], for which the results for the IC50 on JAK2 and on Aurora A were not below 10000 nM and 1000 to 10000 nM, respectively. Moreover, the “JAK3/AurA Fold Selectivity” value on Aurora A is 10-50 Fold.

As to `O=C(CCn1cc(Nc2ncc3cnn(Cc4cccc(N5CCOCC5)c4)c3n2)cn1)N1CCCCC1` [Example 20, 3-(4-((1-(3-Morpholinobenzyl)-1H-pyrazolo[3,4-d]pyrimidin-6-yl)amino)-1H-pyrazol-1-yl)-1-(piperidin-1-yl)propan-1-one], on JAK2, the IC50 is not below 10000 nM. Moreover, at Aurora A, the “JAK3/AurA Fold Selectivity” value is listed as 10-50 Fold and the IC50 was in the range of 100 to 1000 nM.

As for `Cn1cc(Nc2ncc3cnn(Cc4cccc(N5CCOCC5)c4F)c3n2)cn1` [Example 21, 1-(2-Fluoro-3-morpholinobenzyl)-N-(1-methyl-1H-pyrazol-4-yl)-1H-pyrazolo[3,4-d]pyrimidin-6-amine], the IC50 on JAK2 lay within 1000 to 10000 nM. Also, on Aurora A, the “JAK3/AurA Fold Selectivity” value is on record as more than 50 Fold and the IC50 fell in the range of 100 to 1000 nM.

`Cn1cc(Nc2ncc3cnn(Cc4cccc(N5CCNCC5)c4)c3n2)cn1` [Example 22, N-(1-Methyl-1H-pyrazol-4-yl)-1-(3-(piperazin-1-yl)benzyl)-1H-pyrazolo[3,4-d]pyrimidin-6-amine]: the IC50 at JAK2 was 1000 to 10000 nM; at Aurora A, 100 to 1000 nM. Further, the “JAK3/AurA Fold Selectivity” value on Aurora A is recorded as 10-50 Fold.

As for `FC(F)Cn1cc(Nc2ncc3cnn(Cc4cccc(N5CCOCC5)c4)c3n2)cn1` [Example 23, N-(1-(2,2-Difluoroethyl)-1H-pyrazol-4-yl)-1-(3-morpholinobenzyl)-1H-pyrazolo[3,4-d]pyrimidin-6-amine], the IC50 on JAK2 was not below 10000 nM. For the same compound, at Aurora A, the “JAK3/AurA Fold Selectivity” value is given as 3-10 Fold and the IC50 lay within 100 to 1000 nM.

Regarding `CNC(=O)CCn1cc(Nc2ncc3cnn(Cc4cccc(N5CCOCC5)c4)c3n2)cn1` [Example 24, N-Methyl-3-(4-((1-(3-morpholinobenzyl)-1H-pyrazolo[3,4-d]pyrimidin-6-yl)amino)-1H-pyrazol-1-yl)propanamide], the IC50 on JAK2 is not below 10000 nM; at Aurora A, 100 to 1000 nM. Moreover, on Aurora A, the “JAK3/AurA Fold Selectivity” value was 10-50 Fold.

`Cn1cc(Nc2ncc3cnn(Cc4cccc(N5CCS(=O)(=O)CC5)c4)c3n2)cn1` [Example 25, 4-(3-((6-((1-Methyl-1H-pyrazol-4-yl)amino)-1H-pyrazolo[3,4-d]pyrimidin-1-yl)methyl)phenyl)thiomorpholine 1,1-dioxide]: the results for the IC50 on JAK2 and at Aurora A were not below 10000 nM and 100 to 1000 nM, respectively. For the same compound, the “JAK3/AurA Fold Selectivity” value at Aurora A is reported as 10-50 Fold.

Turning to `Cn1cc(Nc2ncc3cnn(Cc4cccc(N5CC6CCC(C5)O6)c4)c3n2)cn1` [Example 26], the IC50 at JAK2 is not below 10000 nM. Further, on Aurora A, the “JAK3/AurA Fold Selectivity” value is listed as 3-10 Fold and the IC50 is 100 to 1000 nM.

As to `Cn1cc(Nc2ncc3cnn(Cc4cccc(N5CCOCC5=O)c4)c3n2)cn1` [Example 27, 4-(3-((6-((1-Methyl-1H-pyrazol-4-yl)amino)-1H-pyrazolo[3,4-d]pyrimidin-1-yl)methyl)phenyl)morpholin-3-one], the IC50 at JAK2 was in the range of 1000 to 10000 nM. In addition, on Aurora A, the “JAK3/AurA Fold Selectivity” value is on record as 10-50 Fold and the IC50 lay within 100 to 1000 nM.

For `CN(C)CCCn1cc(Nc2ncc3cnn(Cc4cccc(N5CCOCC5=O)c4)c3n2)cn1` [Example 28, 4-(3-((6-((1-(3-(Dimethylamino)propyl)-1H-pyrazol-4-yl)amino)-1H-pyrazolo[3,4-d]pyrimidin-1-yl)methyl)phenyl)morpholin-3-one], the IC50 at JAK2 was not below 10000 nM. For the same compound, at Aurora A, the “JAK3/AurA Fold Selectivity” value is recorded as more than 50 Fold and the IC50 is 100 to 1000 nM.
